Source: PubChem BioAssay (NCI)
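Compound exposure: 48 hours, 5 concentrations, 96-well plates. GI50 is the concentration that inhibits growth by half. The concentration for full growth arrest is given as TGI.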

Legend:
Experiment in all cases: NCI-60 cell line screen, 48 h
MDA-MB-231 breast = tested on: MDA-MB-231 breast
MDA-MB-435 = tested on: MDA-MB-435
DU-145 prostate = tested on: DU-145 prostate
MCF7 breast = tested on: MCF7 breast
SR leukemia = tested on: SR leukemia
SF-539 CNS = tested on: SF-539 CNS
M14 melanoma = tested on: M14 melanoma
ACHN renal = tested on: ACHN renal
HCC-2998 colon = tested on: HCC-2998 colon
HOP-62 NSCLC = tested on: HOP-62 NSCLC
SN12C renal = tested on: SN12C renal
NCI/ADR-RES ovarian = tested on: NCI/ADR-RES ovarian
OVCAR-5 ovarian = tested on: OVCAR-5 ovarian
A549 NSCLC = tested on: A549 NSCLC
HS 578T breast = tested on: HS 578T breast
NCI-H226 lung = tested on: NCI-H226 lung
UACC-62 melanoma = tested on: UACC-62 melanoma
SF-268 CNS = tested on: SF-268 CNS
SK-OV-3 ovarian = tested on: SK-OV-3 ovarian
KM12 colon = tested on: KM12 colon
OVCAR-8 ovarian = tested on: OVCAR-8 ovarian
MOLT-4 leukemia = tested on: MOLT-4 leukemia
SNB-75 CNS = tested on: SNB-75 CNS
SF-295 CNS = tested on: SF-295 CNS
NCI-H23 lung = tested on: NCI-H23 lung
MALME-3M melanoma = tested on: MALME-3M melanoma
CAKI-1 renal = tested on: CAKI-1 renal
CCRF-CEM leukemia = tested on: CCRF-CEM leukemia
UACC-257 melanoma = tested on: UACC-257 melanoma
A498 renal = tested on: A498 renal
NCI-H460 lung = tested on: NCI-H460 lung
HCT-116 colon = tested on: HCT-116 colon
OVCAR-4 ovarian = tested on: OVCAR-4 ovarian
SW-620 colon = tested on: SW-620 colon
COLO 205 colon = tested on: COLO 205 colon
SK-MEL-28 melanoma = tested on: SK-MEL-28 melanoma
UO-31 renal = tested on: UO-31 renal
TK-10 renal = tested on: TK-10 renal
K-562 leukemia = tested on: K-562 leukemia
HCT-15 colon = tested on: HCT-15 colon
U251 CNS = tested on: U251 CNS
SK-MEL-5 melanoma = tested on: SK-MEL-5 melanoma
HL-60(TB) leukemia = tested on: HL-60(TB) leukemia
IGROV1 ovarian = tested on: IGROV1 ovarian
RPMI-8226 leukemia = tested on: RPMI-8226 leukemia
HT29 colon = tested on: HT29 colon
LOX IMVI melanoma = tested on: LOX IMVI melanoma
NCI-H522 lung = tested on: NCI-H522 lung
BT-549 breast = tested on: BT-549 breast
HOP-92 NSCLC = tested on: HOP-92 NSCLC
T-47D breast = tested on: T-47D breast
SNB-19 CNS = tested on: SNB-19 CNS
EKVX NSCLC = tested on: EKVX NSCLC
RXF 393 renal = tested on: RXF 393 renal
SK-MEL-2 melanoma = tested on: SK-MEL-2 melanoma
786-0 renal = tested on: 786-0 renal
PC-3 prostate = tested on: PC-3 prostate

Structure (SMILES): Oc1ccc(-c2nnc(SCc3ccc(O)c4ncccc34)o2)cc1
- GI50 (MDA-MB-231 breast): 1960 nM
- TGI (MDA-MB-231 breast): 14700 nM
- GI50 (MDA-MB-435): 418 nM
- TGI (MDA-MB-435): > 100000 nM
- GI50 (DU-145 prostate): 582 nM
- TGI (DU-145 prostate): 28900 nM
- GI50 (MCF7 breast): 721 nM
- TGI (MCF7 breast): > 100000 nM
- GI50 (SR leukemia): 1100 nM
- TGI (SR leukemia): > 100000 nM
- GI50 (SF-539 CNS): 666 nM
- TGI (SF-539 CNS): 15000 nM
- GI50 (M14 melanoma): 544 nM
- TGI (M14 melanoma): 3880 nM
- GI50 (ACHN renal): 1080 nM
- TGI (ACHN renal): 10100 nM
- GI50 (HCC-2998 colon): 3220 nM
- TGI (HCC-2998 colon): > 68800 nM
- GI50 (HOP-62 NSCLC): 543 nM
- TGI (HOP-62 NSCLC): 7590 nM
- GI50 (SN12C renal): 417 nM
- TGI (SN12C renal): > 38500 nM
- GI50 (NCI/ADR-RES ovarian): 1540 nM
- TGI (NCI/ADR-RES ovarian): > 73700 nM
- GI50 (OVCAR-5 ovarian): 3330 nM
- TGI (OVCAR-5 ovarian): > 100000 nM
- GI50 (A549 NSCLC): 839 nM
- TGI (A549 NSCLC): > 31100 nM
- GI50 (HS 578T breast): 388 nM
- TGI (HS 578T breast): > 22300 nM
- GI50 (NCI-H226 lung): 3130 nM
- TGI (NCI-H226 lung): > 100000 nM
- GI50 (UACC-62 melanoma): 2430 nM
- TGI (UACC-62 melanoma): 7100 nM
- GI50 (SF-268 CNS): 658 nM
- TGI (SF-268 CNS): 35300 nM
- GI50 (SK-OV-3 ovarian): 1770 nM
- TGI (SK-OV-3 ovarian): 6540 nM
- GI50 (KM12 colon): 1560 nM
- TGI (KM12 colon): > 100000 nM
- GI50 (OVCAR-8 ovarian): 440 nM
- TGI (OVCAR-8 ovarian): > 40000 nM
- GI50 (MOLT-4 leukemia): 1260 nM
- TGI (MOLT-4 leukemia): > 100000 nM
- GI50 (SNB-75 CNS): 898 nM
- TGI (SNB-75 CNS): 8400 nM
- GI50 (SF-295 CNS): 978 nM
- TGI (SF-295 CNS): 10600 nM
- GI50 (NCI-H23 lung): 527 nM
- TGI (NCI-H23 lung): 11600 nM
- GI50 (MALME-3M melanoma): 1960 nM
- TGI (MALME-3M melanoma): 17600 nM
- GI50 (CAKI-1 renal): 2260 nM
- TGI (CAKI-1 renal): 8840 nM
- GI50 (CCRF-CEM leukemia): 833 nM
- TGI (CCRF-CEM leukemia): > 100000 nM
- GI50 (UACC-257 melanoma): 2530 nM
- TGI (UACC-257 melanoma): 7890 nM
- GI50 (A498 renal): 2370 nM
- TGI (A498 renal): 7490 nM
- GI50 (NCI-H460 lung): 364 nM
- TGI (NCI-H460 lung): 5090 nM
- GI50 (HCT-116 colon): 379 nM
- TGI (HCT-116 colon): 26300 nM
- GI50 (OVCAR-4 ovarian): 3410 nM
- TGI (OVCAR-4 ovarian): > 100000 nM
- GI50 (SW-620 colon): 680 nM
- TGI (SW-620 colon): > 100000 nM
- GI50 (COLO 205 colon): 3060 nM
- TGI (COLO 205 colon): 11400 nM
- GI50 (SK-MEL-28 melanoma): 2080 nM
- TGI (SK-MEL-28 melanoma): > 100000 nM
- GI50 (UO-31 renal): 1350 nM
- TGI (UO-31 renal): 6440 nM
- GI50 (TK-10 renal): 2250 nM
- TGI (TK-10 renal): 7840 nM
- GI50 (K-562 leukemia): 418 nM
- TGI (K-562 leukemia): > 100000 nM
- GI50 (HCT-15 colon): 510 nM
- TGI (HCT-15 colon): > 100000 nM
- GI50 (U251 CNS): 386 nM
- TGI (U251 CNS): 13700 nM
- GI50 (SK-MEL-5 melanoma): 854 nM
- TGI (SK-MEL-5 melanoma): > 22800 nM
- GI50 (HL-60(TB) leukemia): 1390 nM
- TGI (HL-60(TB) leukemia): 6190 nM
- GI50 (IGROV1 ovarian): 2230 nM
- TGI (IGROV1 ovarian): 13200 nM
- GI50 (RPMI-8226 leukemia): 544 nM
- TGI (RPMI-8226 leukemia): > 100000 nM
- GI50 (HT29 colon): 3570 nM
- TGI (HT29 colon): > 100000 nM
- GI50 (LOX IMVI melanoma): 406 nM
- TGI (LOX IMVI melanoma): 11900 nM
- GI50 (NCI-H522 lung): 402 nM
- TGI (NCI-H522 lung): 20500 nM
- GI50 (BT-549 breast): 444 nM
- TGI (BT-549 breast): 21200 nM
- GI50 (HOP-92 NSCLC): 219 nM
- TGI (HOP-92 NSCLC): 747 nM
- GI50 (T-47D breast): 2430 nM
- TGI (T-47D breast): 9390 nM
- GI50 (SNB-19 CNS): 450 nM
- TGI (SNB-19 CNS): 38200 nM
- GI50 (EKVX NSCLC): 2630 nM
- TGI (EKVX NSCLC): 11300 nM
- GI50 (RXF 393 renal): 1430 nM
- TGI (RXF 393 renal): 34300 nM
- GI50 (SK-MEL-2 melanoma): 587 nM
- TGI (SK-MEL-2 melanoma): 6910 nM
- GI50 (786-0 renal): 2640 nM
- TGI (786-0 renal): 9550 nM
- GI50 (PC-3 prostate): 584 nM
- TGI (PC-3 prostate): > 100000 nM
